We go through 19 compounds from ChEMBL document CHEMBL5728724, “6-aryl-7-substituted-3-(1H-pyrazol-5-yl)-7H-[1,2,4]triazolo[3,4-b][1,3,4]thiadiazines as inhibitors of the STAT3 pathway with anti-proliferative activity” (2021).

Molecules are shown by their SMILES. Where only a bound is given, the exact number is not on record here.

The target of the assay is T1, Signal transducer and activator of transcription 1-alpha/beta (Homo sapiens, UniProt P42224).
T1 sequence (P42224 whole entry): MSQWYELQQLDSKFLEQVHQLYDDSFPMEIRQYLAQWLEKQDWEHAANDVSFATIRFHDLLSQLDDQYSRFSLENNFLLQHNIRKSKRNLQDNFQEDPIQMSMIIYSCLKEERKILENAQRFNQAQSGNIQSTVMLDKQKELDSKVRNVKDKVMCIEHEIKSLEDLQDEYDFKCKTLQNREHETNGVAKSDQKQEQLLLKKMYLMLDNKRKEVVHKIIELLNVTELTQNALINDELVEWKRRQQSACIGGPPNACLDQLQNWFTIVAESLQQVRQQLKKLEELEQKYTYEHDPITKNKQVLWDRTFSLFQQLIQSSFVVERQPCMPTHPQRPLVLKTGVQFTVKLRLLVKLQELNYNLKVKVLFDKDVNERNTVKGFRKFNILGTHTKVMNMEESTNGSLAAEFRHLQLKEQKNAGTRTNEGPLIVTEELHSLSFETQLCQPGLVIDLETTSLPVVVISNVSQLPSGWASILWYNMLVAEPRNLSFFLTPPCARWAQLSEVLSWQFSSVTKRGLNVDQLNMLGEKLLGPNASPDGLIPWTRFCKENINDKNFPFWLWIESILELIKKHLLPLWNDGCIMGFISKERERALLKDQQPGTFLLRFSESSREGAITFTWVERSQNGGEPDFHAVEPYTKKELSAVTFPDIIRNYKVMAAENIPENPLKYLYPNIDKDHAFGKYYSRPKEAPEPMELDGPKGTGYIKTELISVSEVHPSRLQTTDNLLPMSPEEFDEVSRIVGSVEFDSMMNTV
In words: Bioassay: Compound samples (in 3-5 mg quantities) were evaluated in a variety of assays. All compound submissions were fully characterized (1H, 13C, IR, FIRMS), satisfied purity criteria (≥95% LC/MC, ELS).
Take `CC1=Nn2c(nnc2-c2cc(-c3ccccc3)[nH]n2)SC1`: the 50% inhibitory concentration (IC50) was over 50 µM.

Compound `COc1ccc(C2=Nn3c(nnc3-c3[nH]nc4c3CCC4)SC2C)cc1` (centres undefined) yielded an IC50 of over 50 µM.

For the compound `c1ccc(C2=Nn3c(nnc3-c3cc(-c4ccccc4)[nH]n3)SC2)cc1`, the half-inhibitory concentration (IC50) was over 50 µM.

Consider `Clc1ccc(C2=Nn3c(nnc3-c3cc(-c4ccccc4)n[nH]3)SC2)s1`, for which the IC50 was over 50 µM.

`CC1Sc2nnc(-c3cc(-c4ccc(F)cc4)n[nH]3)n2N=C1c1ccccc1` (centres undefined) gave an IC50 of over 30 µM.

In turn, `c1cc(C2=Nn3c(nnc3-c3[nH]nc4c3CCC4)SC2)ccn1` came in with an IC50 of over 50 µM.

The compound `c1ccc(-c2cc(-c3nnc4n3N=C(C3CCCCC3)CS4)[nH]n2)cc1` gave a half-maximal inhibitory concentration (IC50) of over 50 µM.

For `c1ccc(-c2cc(-c3nnc4n3N=C(c3ccncc3)CS4)[nH]n2)cc1`, the IC50 was over 50 µM.

For `Clc1ccc(C2=Nn3c(nnc3-c3[nH]nc4c3CCC4)SC2)cc1`, the IC50 was over 50 µM.

With `Clc1ccc(C2=Nn3c(nnc3-c3cc(-c4ccccc4)n[nH]3)SC2)cc1Cl`, the IC50 was over 50 µM.

`COc1ccc(C2=Nn3c(nnc3-c3[nH]nc4c3CCC4)SC2C(C)C)cc1` (centres undefined) returned an IC50 of over 50 µM.

`C1=Nn2c(nnc2-c2cc(-c3ccccc3)n[nH]2)SC1` had a concentration for half-maximal inhibition (IC50) of over 50 µM.

In turn, `CC(C)C1Sc2nnc(-c3[nH]nc4c3CCC4)n2N=C1c1ccc(Cl)c(Cl)c1` (centres undefined) returned a 50% inhibitory concentration (IC50) of over 50 µM.

For `C1CCC(C2=Nn3c(nnc3-c3[nH]nc4c3CCC4)SC2)CC1`, the concentration for half-maximal inhibition (IC50) is over 50 µM.

As for `COc1ccc(C2=Nn3c(nnc3-c3cc(-c4ccc(F)cc4)n[nH]3)SC2C)cc1` (centres undefined), the IC50 is over 30 µM.

As to `Clc1ccc(C2=Nn3c(nnc3-c3[nH]nc4c3CCC4)SC2)s1`, the concentration for half-maximal inhibition (IC50) was over 50 µM.

`CC1=Nn2c(nnc2-c2[nH]nc3c2CCC3)SC1` displayed a concentration for half-maximal inhibition (IC50) of over 50 µM.

The compound `C1=Nn2c(nnc2-c2[nH]nc3c2CCC3)SC1` returned an IC50 of over 50 µM.

`c1ccc(C2=Nn3c(nnc3-c3[nH]nc4c3CCC4)SC2)cc1` gave an IC50 of over 50 µM.

Broadly, the IC50 is the concentration needed to halve the response being measured.
